Source: patent publication US20260243757A1, “IMMUNE CELL-DERIVED SECRETOME” (Agency for Science, Technology and Research, priority 2023, published 2026)

Assays:
D341 = test: Drug treatment in secretome versus standard media (FIG. 41); type: cell-based, human
[1] = test system: CHLA01 (primary tumour cells); test: as above; type: cell-based, human; conditions: CHLA01 neurospheres
[2] = test system: CHLA01R (recurrent/relapse tumour cells); test: as above; type: cell-based, human; conditions: CHLA01R neurospheres
[3] = test system: ATRT cell lines and medulloblastoma; test: Drug efficacy in the presence of the secretome; type: cell-based, human; conditions: during early tumourigenesis
Medulloblastoma = test: Ispinesib in PDX brain tumors implanted using secretome+Tumor (Batch 94B); type: in vivo, mice; conditions: 10 mg/kg intraperitoneally every four days for three doses, repeated on day 21
Procedure: (§1) Rag2/Severe combined immune deficiency (SCID) mice were bred and housed in a pathogen-free facility. Surgical implantation of tumour cells ([…]) into mouse cerebrum was performed using the method of the present disclosure previously described by studies in the art. The general recommendations in ARRIVE guidelines 2.0 (https://arriveguidelines.org/) were followed in the study of the present disclosure. The sample size of the present disclosure was small. […] The animals were randomly assigned into treatment versus control groups to have approximately equal number of animals per group. […] Treatment was delivered to animals assigned in treatment group, cage-by-cage. Blinding was not possible as the inventor of the present disclosure have a small team of 2-3 individuals working with the animals and the inventor of the present disclosure are all involved at various stages and day-to-day processes of the animal work. Separate batches comprising of various litters were used, minimizing bias from the same litter effect. The inventor of the present disclosure has previously published using this animal protocol and is not otherwise deposited in any repository/registry.
OTSSP167 was dissolved in a solution of dimethyl sulfoxide, Kolliphor® EL and sterile water. A daily dose of 5 mg/kg of OTSSP167 was administered to the mice via intraperitoneal injection for 14 days. […]

CHLA-02 [4] = test: Proliferation assay (standard growth media), OTSSP167 dose-response; type: cell-based; conditions: Homo sapiens, 96 h, Day 4
Procedure: (§2) Tumour cells were seeded in quadruplicates for each treatment condition (FIG. 5B). OTSSP167 was added. Cell proliferation was determined, and optical density (OD) was measured using a fluorescence/luminescence detection System.

BT-37 [5] = test: as above; type: cell-based, human
Procedure: as §2

six ATRT cell lines = test: Proliferation assay (standard growth media), panel; type: cell-based, human; conditions: over 13 days
Procedure: as §2

CHLA-04 = test: Proliferation assay (standard growth media), OTSSP167; type: cell-based, human; conditions: MELK-low CHLA-04; 50 nM dose
Procedure: as §2

BT-37 [6] = test: Flow cytometry for apoptotic cell death (Annexin V/PI); type: cell-based, human; conditions: BT-37 cells; 48 hours of OTSSP167 treatment
Procedure: (§3) Tumour cells were treated in culture with OTSSP167 to detect apoptosis (FIG. 5C). At each timepoint, cells were harvested and stained with Annexin V-FITC and PI. Stained cells were then analysed by flow cytometry at the excitation wavelength of 488 nm (FITC) and 595 nM (PI). Cultured cells were treated with OTSSP167 to study the cell cycle changes. Cells were harvested and fixed with absolute ethanol. Fixed cells were stained with PI/RNase A master mix (PI and RNase A) prior to analysis by flow cytometry.

CHLA-02 [7] = test: as above; type: cell-based, human; conditions: CHLA-02 cells; 48 hours of OTSSP167 treatment
Procedure: as §3

CHLA-02 and BT-37 cells = test: Immunoblotting after OTSSP167 treatment; type: cell-based, human
Procedure: Cells were lysed in RIPA buffer with 1% Protease and Phosphatase Inhibitor Cocktail on ice. Protein samples were first denatured with 5% β-mercaptoethanol in Laemmli's buffer at 95° C. Protein concentration was determined using Protein Assay Kit. Protein lysates were resolved, and equal amounts of denatured proteins was run on NuPAGE 4-12% Bis-Tris Protein Gel and transferred onto PVDF membrane. Membrane blots for phosphorylated Histone H2A.X were blocked with 5% Bovine serum albumin (BSA) in 1× TBS-T ([…] Tris-buffered Saline, 0.1 % Tween® 20). Other membrane blots were blocked with 5% skim milk in 1× TBS-T for 1 hour and incubated with its respective primary antibodies at 4° C. overnight. Protein bands were visualized using an imaging system with Western blotting substrate. Primary antibodies used were: Eg5, cleaved PARP, β-actin, cleaved caspase-3, and p53, p-Histone H2A.X, p21. Secondary antibodies included: anti-rabbit IgG HRP-linked and anti-mouse IgG HRP linked.

[8] = test system: autopsy-derived patient-derived orthotopic xenograft (PDOX) Model of ATRT; test: Orthotopic xenograft survival, intraperitoneal OTSSP167; type: in vivo, mice; conditions: 5 mg/kg daily intraperitoneal for 14 days; p=0.032, Log-rank test
Procedure: as §1
OTSSP167 was dissolved in a solution of dimethyl sulfoxide, Kolliphor® EL and sterile water. […]
Mice were carefully monitored daily their fitness using a clinical staging system we previously published. […]

CHLA-02, BT-37 = test: Cell proliferation assay (secretome-based or growth-media-based), DMSO or OTSSP167; design: species or system human
Procedure: Human myeloid-derived cells (U937) were seeded at a fixed density and stimulated with PMA and IL-4 for 48 h to obtain CD 11b+ cells. Stimulated human myeloid-derived macrophages were harvested without trypsinization (Biological replicate 1 in FIG. 4D and FIG. 5E) and with trypsinization (Biological replicate 2 and 3 in FIG. 4D and FIG. 5E). These cells highly express CD11b+ with or without trypsinization (FIG. 14A). CD11b+ cells were washed twice with PBS. CD11b+ cells were plated at a fixed density in 1 ml of pure RPMI (serum-free) to obtain CD11b+ supernatants (Condition 2). CD11b+ cells (same density) were co-incubated with tumour cells at 1:1 ratio in pure RPMI (serum-free) to obtain co-culture supernatant (Condition 3). Tumour cells were seeded at the same density to obtain tumour supernatant (Condition 1). […]
Tumour cells were suspended in 3 types of cell-free supernatants: CD 11b+ supernatant, tumour supernatant, and CD11b+-tumour co-culture supernatant. […] Cell viability was determined by a kit at 4 h, 24 h, 48 h, 72 h time points, over a period of 3 days. Optical density (OD) was measured using a fluorescence/luminescence detection system (FIGS. 4A, 4B, FIG. 18). All other absorbance (OD) was measured at 450 nm using a multilabel plate reader. Absorbance of wells with serum-free pure RPMI was used as blank.

BT-37 [9] = test: Apoptosis assay of OTSSP167-treated cells, standard growth media versus six-factor secretome; type: cell-based, human
Procedure: (§4) Tumour cells were cultured in either standard growth media or six-factor-secretome for […] different duration −4 h, 24 h, 48 h and 96 h (FIG. 5G). To study the killing effect of OTSSP167, tumour cells cultured in each condition (standard growth media or six-factor-secretome) were treated with OTSSP167. Cells were harvested at respective timepoints and stained with FITC-Annexin V and/or Propidium lodide. Stained cells were then analysed by flow cytometry at the excitation wavelength of 488 nm (FITC) and 595 nM (PI). A total of 10,000 cells were analysed per measurement.

CHLA-02 [10] = test: as above; type: cell-based, human; conditions: FIG. 37
Procedure: as §4

Daoy = test: Drug treatment in secretome versus standard media (FIG. 41); type: cell-based, human
CHLA-02 [11] = test: Photomicrographs of growth morphology in T75 flasks; type: cell-based, human; conditions: OTSSP167 in secretome versus standard growth media
another ATRT mouse model = conditions: cited from earlier work

Structure (SMILES): Cc1ccc(C(=O)N(CCCN)[C@@H](c2nc3cc(Cl)ccc3c(=O)n2Cc2ccccc2)C(C)C)cc1 [Ispinesib, (R)-N-(3-aminopropyl)-N-(1-(3-benzyl-7-chloro-4-oxo-3,4-dihydroquinazolin-2-yl)-2-methylpropyl)-4-methylbenzamide]
- cell death/survival with drug in secretome compared to standard media (D341): survive better
- cell death/survival with drug in secretome compared to standard media [1]: survive better
- cell death/survival with drug in secretome compared to standard media [2]: survive better
- drug efficacy in the presence of the secretome [3]: reduced
- efficacy in PDX brain tumors implanted using secretome+Tumor (Medulloblastoma): effective

Structure (SMILES): CC(=O)c1cnc2ccc(-c3cc(Cl)c(O)c(Cl)c3)nc2c1N[C@H]1CC[C@H](CN(C)C)CC1 [OTSSP167, 1-(6-(3,5-dichloro-4-hydroxyphenyl)-4-(((1r,4r)-4-((dimethylamino)methyl)cyclohexyl)amino)-1,5-naphthyridin-3-yl)ethenone]
- IC50 (CHLA-02 [4]): 20.8 nM
- IC50 (BT-37 [5]; Homo sapiens, 96 h, BT-37, Day 4): 70.4 nM
- effect against tumour cells (BT-37 [5]; MELK-high BT-37 cells, 5 nM dose): effective
- efficacy across panel of ATRT cell lines (dose-response) (six ATRT cell lines): efficacious across a panel of six ATRT cell lines in nanomolar ranges
- effect against tumour cells (CHLA-04): effective
- early and late apoptotic cells (BT-37 [6]): 58.1%
- early and late apoptotic cells (CHLA-02 [7]): 50.7%
- p-Histone H2A.X (DNA damage) (CHLA-02 and BT-37 cells; 24 h, 48 h and 72 h treatment): increased
- c-PARP (intrinsic apoptosis pathway) (CHLA-02 and BT-37 cells; OTSSP167 treatment): increased
- p53 (CHLA-02 and BT-37 cells; OTSSP167 treatment): increased
- overall survival of animals [8]: significantly improved
- OTSSP167 efficacy in six-factor-secretome compared to standard growth media (tumour proliferation) (CHLA-02, BT-37): decreased
- cell death with OTSSP167 in secretome compared to standard media conditions (BT-37 [9]; BT-37, FIG. 38): more cell death
- cell death of OTSSP167-treated BT-37 versus CHLA-02 in secretome (BT-37 [9]; in secretome after 24-48 h): more cell death than CHLA-02 cells
- cell death with OTSSP167 in secretome compared to standard media conditions (CHLA-02 [10]): more cell death
- cell death/survival with drug in secretome compared to standard media (Daoy): higher cell death
- cell death/survival with drug in secretome compared to standard media (D341): higher cell death
- cell death/survival with drug in secretome compared to standard media [1]: survive better
- cell death/survival with drug in secretome compared to standard media [2]: survive better
- drug efficacy in the presence of the secretome [3]: reduced
- growth morphology of tumour cells treated with OTSSP167 in secretome (CHLA-02 [11]): maintained their interlacing, web-like architecture
- blood-brain-barrier penetration (another ATRT mouse model): penetrate blood-brain-barrier
